Assay results reported in publication PMC5368959, “Uricosuric targets of tranilast” (Pharmacology Research & Perspectives, 2017).
“And” between values parts separate entries of the source, which are not always exact repeats. Equal values may be shown once. Read-outs that look alike come from different tables or passages of the source.

Columns and labels:
Assay type in all cases: cell-based
[1] = target: T1, URAT1 (Homo sapiens, UniProt Q96S37); experiment: [14C]-urate uptake by URAT1-expressing Xenopus oocytes; settings: for IC50: 40 μmol/L urate
T1 sequence (Q96S37 1-553): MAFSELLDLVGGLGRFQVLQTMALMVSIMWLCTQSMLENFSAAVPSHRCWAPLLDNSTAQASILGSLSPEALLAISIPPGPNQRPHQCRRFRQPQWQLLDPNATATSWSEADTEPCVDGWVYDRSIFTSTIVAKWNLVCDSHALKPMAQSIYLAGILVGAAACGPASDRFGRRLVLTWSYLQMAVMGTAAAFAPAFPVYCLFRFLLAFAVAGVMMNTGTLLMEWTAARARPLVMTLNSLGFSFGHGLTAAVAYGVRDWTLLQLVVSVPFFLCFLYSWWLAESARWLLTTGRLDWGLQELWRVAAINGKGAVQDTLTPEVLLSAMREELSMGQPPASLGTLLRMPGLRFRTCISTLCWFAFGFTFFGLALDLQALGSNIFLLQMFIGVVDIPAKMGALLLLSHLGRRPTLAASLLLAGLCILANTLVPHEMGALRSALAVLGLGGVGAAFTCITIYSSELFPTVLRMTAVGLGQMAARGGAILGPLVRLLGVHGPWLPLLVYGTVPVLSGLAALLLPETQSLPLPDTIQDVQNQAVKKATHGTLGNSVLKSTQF
Excerpt: (§1) For uptake experiments, oocytes were washed four times with ND96 medium (pH 7.4) without pyruvate and gentamycin.

[2] = target: T2, GLUT9a (Homo sapiens, UniProt Q9NRM0); experiment: [14C]-urate uptake by GLUT9a-expressing Xenopus oocytes; settings: for IC50: 40 μmol/L urate, NaCl medium, read-out: IC50, GLUT9a-mediated [14C]-urate uptake
T2 sequence (Q9NRM0 1-540): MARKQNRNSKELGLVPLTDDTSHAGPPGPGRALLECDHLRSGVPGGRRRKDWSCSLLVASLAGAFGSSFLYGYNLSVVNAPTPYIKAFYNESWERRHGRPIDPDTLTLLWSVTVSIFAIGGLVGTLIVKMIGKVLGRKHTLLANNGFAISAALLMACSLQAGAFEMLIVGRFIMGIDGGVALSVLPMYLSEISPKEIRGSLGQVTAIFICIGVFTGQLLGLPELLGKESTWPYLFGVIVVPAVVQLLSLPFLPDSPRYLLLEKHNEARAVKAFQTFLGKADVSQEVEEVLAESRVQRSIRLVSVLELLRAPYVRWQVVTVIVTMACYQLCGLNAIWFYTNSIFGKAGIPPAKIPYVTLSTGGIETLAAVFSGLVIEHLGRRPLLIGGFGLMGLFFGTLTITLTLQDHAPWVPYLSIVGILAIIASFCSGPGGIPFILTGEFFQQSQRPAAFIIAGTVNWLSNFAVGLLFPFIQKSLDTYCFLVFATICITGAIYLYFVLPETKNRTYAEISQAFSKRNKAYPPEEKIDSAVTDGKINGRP
Excerpt: as §1
We sought to investigate the effect of tranilast on GLUT9a‐mediated [^14C]‐urate uptake in Xenopus laevis oocytes.

[3] = target: T3, OAT4 (Homo sapiens, UniProt Q9NSA0); experiment: [14C]-urate uptake by OAT4-expressing Xenopus oocytes; settings: for Inhibition of OAT4-mediated urate uptake: drug 100 μmol/L
T3 sequence (Q9NSA0 1-550): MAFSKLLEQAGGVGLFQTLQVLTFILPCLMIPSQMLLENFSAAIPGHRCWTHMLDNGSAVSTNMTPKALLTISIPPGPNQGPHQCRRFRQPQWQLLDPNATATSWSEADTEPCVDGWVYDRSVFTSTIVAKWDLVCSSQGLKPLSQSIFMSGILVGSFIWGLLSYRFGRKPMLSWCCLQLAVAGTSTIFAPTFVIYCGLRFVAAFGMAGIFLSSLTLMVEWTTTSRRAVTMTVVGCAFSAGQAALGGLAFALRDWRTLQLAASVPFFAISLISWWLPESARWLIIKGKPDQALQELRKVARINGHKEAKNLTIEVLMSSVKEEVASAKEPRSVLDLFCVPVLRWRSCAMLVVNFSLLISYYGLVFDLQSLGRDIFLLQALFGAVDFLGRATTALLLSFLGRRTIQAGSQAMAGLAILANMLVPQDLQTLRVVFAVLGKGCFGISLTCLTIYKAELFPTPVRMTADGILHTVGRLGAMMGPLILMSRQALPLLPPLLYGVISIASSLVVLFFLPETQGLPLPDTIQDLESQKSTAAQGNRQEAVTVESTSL
Experimental: as §1
(A) The uptake of [^14C]‐urate by OAT4‐expressing oocytes was performed in ND96 medium (pH 7.4) at ~25°C for 1 h. Na^+‐dependence was examined by replacing extracellular NaCl by KCl. […] (B) The inhibition of [^14C]‐urate uptake by OAT4 was examined in the presence of extracellular organic anions (for cis‐inhibition) or uricosuric drugs at the indicated concentrations. […] Data are mean ± S.E. with n = 12–15.

[4] = target: OAT10 (Homo sapiens, UniProt Q9Y226); experiment: [14C]-urate uptake by OAT10-expressing Xenopus oocytes; settings: for Inhibition of OAT10-mediated urate uptake: drug 100 μmol/L, PZA-preloaded oocytes
Excerpt: as §1
(A) Time course of [^14C]‐urate uptake by control and […] oocytes. […] Inset, western blot analysis of OAT10 protein expressed in oocytes. […] (C) [^14C]‐urate transport properties of OAT10: voltage sensitivity and Na+‐dependence was examined by replacing extracellular NaCl by KCl or LiCl. Existence of urate/Cl^− exchange mechanism or Cl^− dependence or cis‐inhibitory effects of extracellular Cl^− on was verified by [^14C]‐urate uptake via OAT10 in the absence of extracellular Cl^− ion (0 Cl^−). In 0 Cl^− bath, NaCl was replaced by Na‐gluconate (Na‐Gluc), KCl by K‐gluconate (K‐Gluc), MgCl2 by Mg‐gluconate, and CaCl2 by Ca‐gluconate. […] Data are mean ± S.E. with n = 12–15.

Sequence of OAT10 (Q9Y226 whole entry): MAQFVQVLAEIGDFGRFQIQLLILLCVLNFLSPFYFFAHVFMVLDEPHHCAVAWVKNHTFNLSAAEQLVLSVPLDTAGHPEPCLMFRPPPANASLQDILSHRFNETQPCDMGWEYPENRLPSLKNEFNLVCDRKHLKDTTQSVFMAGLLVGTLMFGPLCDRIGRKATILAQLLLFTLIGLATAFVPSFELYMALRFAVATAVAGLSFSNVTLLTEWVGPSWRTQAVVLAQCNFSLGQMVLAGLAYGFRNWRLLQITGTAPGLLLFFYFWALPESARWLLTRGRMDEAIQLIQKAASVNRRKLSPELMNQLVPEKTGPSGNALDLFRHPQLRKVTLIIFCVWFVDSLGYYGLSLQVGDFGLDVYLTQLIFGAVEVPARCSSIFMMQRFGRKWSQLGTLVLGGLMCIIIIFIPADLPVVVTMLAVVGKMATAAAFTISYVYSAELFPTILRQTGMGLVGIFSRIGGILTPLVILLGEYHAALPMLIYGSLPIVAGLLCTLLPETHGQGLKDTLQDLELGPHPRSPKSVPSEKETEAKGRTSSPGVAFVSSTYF

CCc1oc2ccccc2c1C(=O)c1cc(Br)c(O)c(Br)c1 [benzbromarone]
Inhibition of URAT1-mediated [14C]-urate/PZA or /nicotinate exchange [1]: efficiently inhibited | Reversibility of URAT1 inhibition [1]: not reversible | URAT1 urate transport inhibition after washing and removal of inhibitor [1]: substantially inhibited | GLUT9a urate transport inhibition after washing and removal of inhibitor [2]: substantially inhibited | Inhibition of GLUT9a urate uptake [2]: efficiently inhibited | Reversibility of GLUT9a inhibition [2]: not reversible | IC50 [2]: ~14.2 µM | Inhibition of OAT4-mediated urate uptake [3]: very efficiently inhibited | IC50 [4]: ~20 µM | Inhibition of OAT10-mediated urate uptake [4]: very efficiently inhibited

CCCN(CCC)S(=O)(=O)c1ccc(C(=O)O)cc1 [probenecid]
Inhibition of URAT1-mediated [14C]-urate/PZA or /nicotinate exchange [1]: efficiently inhibited | Reversibility of URAT1 inhibition [1]: not reversible | inhibition at 1000 µM ([2]; drug 1.0 mmol/L): ~60% | Reversibility of GLUT9a inhibition ([2]; washout in oocytes): not reversible | inhibition at 1000 µM ([3]; read-out: Inhibition of OAT4-mediated urate uptake): 80% | inhibition at 1000 µM ([4]; read-out: Inhibition of OAT10 urate transport activity): ~65%

COc1ccc(C=CC(=O)Nc2ccccc2C(=O)O)cc1OC [tranilast, N‐(3,4‐dimethoxycinnamoyl) anthranilic acid]
URAT1 urate transport inhibition after washing and removal of inhibitor [1]: almost no inhibition | Vmax of URAT1-mediated urate uptake [1]: 120.1 pmoles/oocyte/h and 63.5 pmoles/oocyte/h | mode of inhibition of URAT1-mediated urate transport [1]: noncompetitive inhibition (mixed) | Ki ([1]; Eadie-Hofstee analysis, read-out: inhibition constant (Ki) for URAT1-mediated urate uptake): 21.3 ± 2.2 µM | IC50 ([1]; IC50, URAT1-mediated [14C]-urate/PZA or [14C]-urate/nicotinate exchange, oocytes preloaded with nicotinate (Fig. 1E), 1 h): 21 µM and ~21 µM | IC50 ([1]; uptake in the absence of PZA or nicotinate preloading, data not shown, read-out: IC50, basal URAT1-mediated [14C]-urate uptake): ~20 µM | GLUT9a urate transport inhibition after washing and removal of inhibitor [2]: almost no inhibition | Inhibition of GLUT9a urate uptake [2]: efficiently inhibited | Vmax of GLUT9a-mediated urate uptake [2]: 108.4 pmoles/oocyte/h and 61 pmoles/oocyte/h | mode of inhibition of GLUT9a-mediated urate transport [2]: noncompetitive (mixed) inhibition | IC50 [2]: ~15.6 µM | Ki ([2]; Eadie-Hofstee analysis, read-out: inhibition constant (Ki) for GLUT9a-mediated urate uptake): 17.1 ± 1.3 µM | IC50 for GLUT9a under membrane depolarization ([2]; depolarized vs polarized, data not shown): remained unchanged | IC50 ([3]; data not shown): ~22 µM | Inhibition of OAT4-mediated urate uptake [3]: very efficiently inhibited | IC50 ([4]; data not shown, read-out: IC50, [14C]-urate uptake by OAT10): ~31 µM | Inhibition of OAT10-mediated urate uptake [4]: very efficiently inhibited
